# Values quoted from earlier work in patent EP0642530B1, “DERIVATIVES OF DOLASTATIN” (BASF Aktiengesellschaft, priority 1992, dated 1993).
# Settings: background statement, no method given
substance,measurement,value
Dolastatin-10,stability to acid,unstable to acid
